Assay results from US11883452B2, “Use of combination or composition of Radix et Rhizoma Notoginseng and aspirin” (CHINESE ACADEMY OF MEDICAL SCIENCES INSTITUTE OF MEDICINAL …, priority 2017, dated 2024).

Legend:
Format in all cases: in vivo, SD rats
rat gastric mucosa = test: HE staining to detect pathological changes of gastric mucosa; conditions: aspirin 10 mg/kg intragastrically daily for 4 weeks; rats
Method: (§1) 40 male SD rats were randomly divided into 4 groups, with 10 rats in each group, including a control group, a group treated with aspirin at a dosage of 10 mg/kg, a group treated with the total saponins from Radix et Rhizoma Notoginseng at a dosage of 100 mg/kg and aspirin at a dosage of 10 mg/kg, and a group treated with the total saponins from Radix et Rhizoma Notoginseng at a dosage of 100 mg/kg. The rats in the groups treated with the total saponins from Radix et Rhizoma Notoginseng and aspirin were administrated intragastrically with the total saponins from Radix et Rhizoma Notoginseng and aspirin daily for 4 weeks, and the rats in the control group were administrated intragastrically with an equivalent volume of normal saline daily.
After 4 weeks of administration, gastric tissues were taken from rats in each group and fixed with 4% formaldehyde solution, routinely embedded in paraffin and cut into slices, and stained with HE to observe the degree of inflammatory lesions in the tissues.

[1] = tested on: middle cerebral artery occlusion (MCAO/R) model rats; test: Serum inflammatory factors by ELISA in MCAO/R rats
[2] = tested on: myocardial ischemia reperfusion injury model rats; test: Three myocardial enzymes (AST, LDH, CK) in myocardial ischemia-reperfusion injury rats
Method: Rats in the groups treated with the total saponins from Radix et Rhizoma Notoginseng and/or aspirin were administrated intragastrically with the total saponins from Radix et Rhizoma Notoginseng and/or aspirin for a week, and rats in the sham operated group and model group were administrated intragastrically with an equivalent volume of distilled water. […] Real time electrocardiograms of the rats were recorded on a multi-lead physiological recorder available from AD Instruments. Thoracotomy was performed on the rats. An incision of 2 to 3 cm was made at a place between the 3rd and 4th ribs and about 0.5 cm from the left side of the sternum, a chest expander was used to open the ribs, and the pericardium was cut when exhaling to expose the heart. Myocardial ischemia was established by ligating the left coronary artery. […] After being stabilized for 5 minutes, the silk thread was passed through a disposable intravenous infusion hose with a length of about 3.5 cm. After the silk thread was pulled out, the silk thread was gently lifted, and the hose was pushed down and was fixed with a hemostatic forceps. […] The ligation was considered successful if: the ST segment was elevated, and the color of local myocardial tissue changed from red to gray; and after 30 minutes of reperfusion, the ST segment fell by more than 50%, and the color of myocardial tissue changed from gray to red. After the reperfusion was completed, blood was taken from the abdominal aorta and analyzed on an automatic biochemical analyzer to detect the levels of three myocardial enzymes (AST, LDH, CK) in plasma.

[3] = tested on: myocardial ischemia reperfusion injury model rats; test: Myocardial infarction volume by TTC staining in myocardial ischemia-reperfusion injury rats; conditions: x ± s
Method: 240 male SD rats were randomly divided into 8 groups, with 30 rats in each group, including a sham operated group, a myocardial ischemia reperfusion injury model group, a group treated with the total saponins from Radix et Rhizoma Notoginseng at a dosage of 50 mg/kg, a group treated with aspirin at a dosage of 10 mg/kg, a group treated with aspirin at a dosage 5 mg/kg, a group treated with the combination of the total saponins from Radix et Rhizoma Notoginseng at a dosage of 50 mg/kg and aspirin at a dosage of 5 mg/kg. […]
The rats were anesthetized by intraperitoneal injection of pentobarbital sodium at a dose of 40 mg/kg body weight, and were connected to a small animal ventilator through an oral cannula, with a respiratory rate of 70 breaths/min, a respiratory ratio of 1:1, and a tidal volume of 1 mL. Real time electrocardiograms of the rats were recorded on a multi-lead physiological recorder available from AD Instruments. […]
Myocardial infarction volumes were evaluated by triphenyl tetrazolium chloride (TTC) staining. […] Myocardial infarction volumes were evaluated and calculated using Image-Pro plus 5.1 software

[4] = tested on: middle cerebral artery occlusion (MCAO/R) model rats; test: Canine urea levels in serum, hippocampus and cerebral cortex by ELISA in MCAO/R rats
Method: Middle cerebral artery occlusion (MCAO) model was established by thread embolization method. The surgical procedure was carried out under strictly aseptic conditions mainly according to the following steps: The rats were anesthetized by intraperitoneal injection of ketamine (80 mg/kg) and xylazine (10 mg/kg). The common carotid artery (CCA), external carotid artery (ECA) and internal carotid artery (ICA) were fully exposed, the common carotid artery was clamped with a vascular clip, and the branches of the external carotid artery were electrocoagulated with a bipolar electrocoagulation forceps. The main trunk of the external carotid artery was freed and ligated at 3 to 4 mm from the bifurcation of the common carotid artery. The internal carotid artery was temporarily clamped with a vascular clip. Corneal scissors were used to make a small incision in the external carotid artery. A 4-0 monofilament nylon thread coated with methylpolysiloxane was inserted and was tied a loose knot at the small incision of the external carotid artery to block the blood reflux of the internal carotid artery. The clip was removed from the internal carotid artery, and the nylon thread was gently pushed into the internal carotid artery to reach the intracranial anterior cerebral artery to block an incision of the middle cerebral artery (MCA), with an insertion depth of about 18-22 mm. The clip was removed from the common carotid artery, and the subcutaneous tissue and skin were sutured layer by layer after disinfection, and 2 hours later the nylon thread was slowly withdrawn to perform reperfusion for 24 hours. The operation to the sham operated group is the same as the above except that nylon thread is not inserted. The rectum of all rats was maintained at a temperature of 37° C. throughout the experiment.
5 mL of blood was taken from the abdominal aorta of the rats (n=8), and centrifuged at 3000 rpm for 10 min to obtain a serum. Hippocampus and cerebral cortex were separated from the brain tissue, homogenized, and centrifuged at 3000 rpm for 10 min to obtain a supernatant. Serum MDA, SOD, CAT and GSH-Px levels were detected with kits available from Nanjing Jiancheng; levels of canine urea and inflammatory response indicators MCP-1, TNF-α, IL-1β, IL-4, IL-6 and IL-10 were detected with ELISA kits.

rat duodenal microvilli = test: Ultrastructure of duodenal villi with transmission electron microscope; conditions: aspirin 10 mg/kg intragastrically daily for 4 weeks; rats
Method: as §1
After 4 weeks of administration, the duodenum was collected from rats in each group of rats and fixed in 2.5% glutaraldehyde buffer for 2 h, then washed with PH 7.4 buffer three times, and then soaked with 1% osmium tetroxide for 30 min, dehydrated with graded alcohol and acetone, and then embedded in epoxy resin 812. Ultra-thin slices were prepared, copper grids of 200 grid units were taken, the ultra-thin slices were again impregnated with uranyl acetate and lead citrate, and then analyzed under the electron microscope to observe changes in the ultrastructure of the duodenum in rats of each group.

[5] = tested on: platelets in platelet-rich plasma; test: Maximum platelet aggregation rate (ADP-induced, platelet-rich plasma) in MCAO/R rats; conditions: ADP 2 μmol/L
Method: 240 male SD rats were randomly divided into 8 groups, with 30 rats in each group, including a sham operated group, a middle cerebral artery occlusion (MCAO/R) model group, a group treated with the total saponins from Radix et Rhizoma Notoginseng at a dosage of 50 mg/kg, a group treated with aspirin at a dosage of 10 mg/kg, a group treated with aspirin at a dosage of 5 mg/kg, a group treated with the combination of the total saponins from Radix et Rhizoma Notoginseng at a dosage of 50 mg/kg and aspirin at a dosage of 5 mg/kg. The rats in the groups treated with the total saponins from Radix et Rhizoma Notoginseng and/or aspirin were administrated intragastrically with the total saponins from Radix et Rhizoma Notoginseng and/or aspirin for a week before MCAO, and the rats in the sham operated group and model group were administrated intragastrically with an equivalent volume of distilled water. […]
3.6 mL of blood was taken from the rats (n=10), anticoagulated with 3.8% sodium citrate (9:1), centrifuged at 150 g for 10 min to separate a platelet-rich plasma, and then centrifuged at 1500 g for 10 min to obtain a supernatant, which was platelet-poor plasma. […] Maximum aggregation within 5 minutes and maximum aggregation time of platelets in platelet-rich plasma were detected with a blood agglutination instrument.

[6] = tested on: middle cerebral artery occlusion (MCAO/R) model rats; test: Cerebral infarction volume by TTC staining in MCAO/R rats; conditions: 24 hours of reperfusion
Method: 240 male SD rats were randomly divided into 8 groups, with 30 rats in each group, including a sham operated group, a middle cerebral artery occlusion (MCAO/R) model group, a group treated with the total saponins from Radix et Rhizoma Notoginseng at a dosage of 50 mg/kg, a group treated with aspirin at a dosage of 10 mg/kg, a group treated with aspirin at a dosage of 5 mg/kg, a group treated with the combination of the total saponins from Radix et Rhizoma Notoginseng at a dosage of 50 mg/kg and aspirin at a dosage of 5 mg/kg. The rats in the groups treated with the total saponins from Radix et Rhizoma Notoginseng and/or aspirin were administrated intragastrically with the total saponins from Radix et Rhizoma Notoginseng and/or aspirin for a week before MCAO, and the rats in the sham operated group and model group were administrated intragastrically with an equivalent volume of distilled water.
Middle cerebral artery occlusion (MCAO) model was established by thread embolization method. The surgical procedure was carried out under strictly aseptic conditions mainly according to the following steps: The rats were anesthetized by intraperitoneal injection of ketamine (80 mg/kg) and xylazine (10 mg/kg). […]
Cerebral infarction volumes were determined by triphenyl tetrazolium chloride (TTC) staining. […] Cerebral infarction volumes were evaluated and calculated using Image-Pro plus 5.1 software.

[7] = tested on: middle cerebral artery occlusion (MCAO/R) model rats; test: Neurological evaluation (Longa's five-grade score) in MCAO/R rats
[8] = aspirin 5 mg/kg intragastrically for a week
[9] = aspirin 10 mg/kg intragastrically for a week
[10] = aspirin 5 mg/kg intragastrically for a week before MCAO
[11] = aspirin 10 mg/kg intragastrically for a week before MCAO

CC(=O)Oc1ccccc1C(=O)O [aspirin]
gastric mucosa pathology (HE staining) compared with the control group (rat gastric mucosa): gastric mucosal epithelial cells were necrotic and inflammatory cells infiltrated | IL-1β ([1]; aspirin 5 mg/kg): 168.58 pg/mL | IL-4 ([1]; aspirin 5 mg/kg): 36.57 pg/mL | IL-6 ([1]; aspirin 5 mg/kg): 47.12 pg/mL | IL-1β ([1]; aspirin 10 mg/kg): 189.69 pg/mL | IL-4 ([1]; aspirin 10 mg/kg): 35.45 pg/mL | IL-6 ([1]; aspirin 10 mg/kg): 47.15 pg/mL | AST(U/L) [2, 8]: 312.48 U/L | CK(U/L) [2, 8]: 1823.49 U/L | LDH(U/L) [2, 8]: 1105.54 U/L | AST(U/L) [2, 9]: 204.32 U/L | CK(U/L) [2, 9]: 1222.54 U/L | LDH(U/L) [2, 9]: 811.85 U/L | Myocardial infarction volume (%) [3, 8]: 9.88% | Myocardial infarction volume (%) [3, 9]: 8.75% | Canine urea levels in cerebral cortex tissue ([4]; aspirin 5 mg/kg): 8.95 µg/L | Canine urea levels in hippocampus ([4]; aspirin 5 mg/kg): 2.11 µg/L | Canine urea levels in serum ([4]; aspirin 5 mg/kg): 18.00 µg/L | Canine urea levels in cerebral cortex tissue ([4]; aspirin 10 mg/kg): 8.12 µg/L | Canine urea levels in hippocampus ([4]; aspirin 10 mg/kg): 2.01 µg/L | Canine urea levels in serum ([4]; aspirin 10 mg/kg): 17.25 µg/L | microvilli on the duodenal surface (electron microscope) compared with the control group (rat duodenal microvilli): the microvilli on the duodenal surface decreased | Maximum platelet aggregation rate (%) [5, 8]: 56.80% | Maximum platelet aggregation rate (%) [5, 9]: 62.63% | Volume of cerebral infarction [6, 10]: 16.08 | Volume of cerebral infarction [6, 11]: 13.96 | Score (neurological deficit, Longa) [7, 10]: 1.83 | Score (neurological deficit, Longa) [7, 11]: 1.08
